Results on 33 compounds are retold here after ChEMBL document CHEMBL4219035, “Synthesis of novel forskolin isoxazole derivatives with potent anti-cancer activity against breast cancer cell lines” (Bioorg Med Chem Lett, 2017).

The structures appear in SMILES notation. The source made the active and inactive calls. The rule behind the calls is not given here. Where only a bound is given, the exact number is not on record here.

Common to all, as to assay type: functional, cell-based
One test deals with BT-474. The test can be described thus: Antiproliferative activity against human BT474 cells after 48 hrs by Alamar blue assay. The conditions noted are these: BT-474, 48 h. On the technique in general: Alamar Blue is a resazurin reagent that responds to reducing activity.
The test system of test [1] is MCF7. The test can be described thus: Antiproliferative activity against human MCF7 cells after 48 hrs by Alamar blue assay. The conditions noted are these: MCF7, 48 h.
Test [2] deals with MCF7. The experiment in a line: Cytotoxicity against human MCF7 cells assessed as morphological changes after 48 hrs by microscopic analysis.

Regarding `COc1ccc(C2=NOC([C@@]3(C)CC(=O)[C@]4(O)[C@@]5(C)[C@@H](OCc6cc(-c7ccc(OC)c(OC)c7)no6)CCC(C)(C)[C@@H]5[C@H](OC(C)=O)[C@H](O)[C@@]4(C)O3)C2)cc1OC` (stereo partly specified), the results for the IC50 in the test on BT-474 and with MCF7 [1] were more than 100 µM and 0.5 µM, respectively.
Turning to `C=C[C@@]1(C)CC(=O)[C@]2(O)[C@@]3(C)[C@@H](OCc4cc(-c5ccc(OCc6ccccc6)cc5)no4)CCC(C)(C)[C@@H]3[C@H](O)[C@H](OC(C)=O)[C@@]2(C)O1`, the IC50 in the test on BT-474 and with MCF7 [1] was 0.5 µM in each case. In addition, the result with MCF7 [2] was Active.
Regarding `C=C[C@@]1(C)CC(=O)[C@]2(O)[C@@]3(C)[C@@H](O)CCC(C)(C)[C@@H]3[C@H](O)[C@H](OC(C)=O)[C@@]2(C)O1` [COLFORSIN], the IC50 with BT-474 is more than 100 µM; with MCF7 [1], 63.3 µM. For the same compound, the result in the test with MCF7 [2] was Active.
On to `C=C[C@@]1(C)CC(=O)[C@]2(O)[C@@]3(C)[C@@H](OCc4cc(-c5c(OC)cc(OC)cc5OC)no4)CCC(C)(C)[C@@H]3[C@H](OC(C)=O)[C@H](O)[C@@]2(C)O1`, for which the IC50 was more than 100 µM with BT-474 and 0.5 µM with MCF7 [1].
The matching figures for `C=C[C@@]1(C)CC(=O)[C@]2(O)[C@@]3(C)[C@@H](OCc4cc(-c5ccc(OC)c(OC)c5)no4)CCC(C)(C)[C@@H]3[C@H](O)[C@H](OC(C)=O)[C@@]2(C)O1`: more than 100 µM and 1.1 µM.
Regarding `C#CCO[C@H]1CCC(C)(C)[C@@H]2[C@H](O)[C@H](OC(C)=O)[C@@]3(C)O[C@@](C)(C=C)CC(=O)[C@]3(O)[C@@]12C`, the half-inhibitory concentration (IC50) in the test with BT-474 and with MCF7 [1] was more than 100 µM throughout.
Consider `CC[C@@]1(C)CC(=O)[C@]2(O)[C@@]3(C)[C@@H](OCc4cc(-c5ccc(OC)c(OC)c5)no4)CCC(C)(C)[C@@H]3[C@H](O)[C@H](OC(C)=O)[C@@]2(C)O1`, for which the IC50 with BT-474 is more than 100 µM; with MCF7 [1], 9.6 µM.
The matching figures for `C=C[C@@]1(C)CC(=O)[C@]2(O)[C@@]3(C)[C@@H](OCc4cc(-c5ccc(OCc6ccccc6)cc5)no4)CCC(C)(C)[C@@H]3[C@H](OC(C)=O)[C@H](O)[C@@]2(C)O1`: more than 100 µM and 84.6 µM.
Consider `C#CCO[C@H]1CCC(C)(C)[C@@H]2[C@H](O)[C@H](OC(C)=O)[C@@]3(C)O[C@@](C)(CC)CC(=O)[C@]3(O)[C@@]12C`, for which the half-inhibitory concentration (IC50) with BT-474 is more than 100 µM; in the test on MCF7 [1] it was 10 µM.
For `COc1ccc(C2=NOC([C@@]3(C)CC(=O)[C@]4(O)[C@@]5(C)[C@@H](OCc6cc(-c7ccc(OC)cc7)no6)CCC(C)(C)[C@@H]5[C@H](OC(C)=O)[C@H](O)[C@@]4(C)O3)C2)cc1` (stereo partly specified), the IC50 in the test on BT-474 was more than 100 µM; with MCF7 [1], 79.3 µM.
In the same order, the values of `CC(=O)O[C@H]1[C@H]2C(C)(C)CC[C@H](OCc3cc(-c4ccc(C)cc4)no3)[C@]2(C)[C@@]2(O)C(=O)C[C@](C)(C3CC(c4ccc(C)cc4)=NO3)O[C@]2(C)[C@H]1O` (stereo partly specified) are more than 100 µM and 59 µM.
In the same order, the values of `COc1ccc(C2=NOC([C@@]3(C)CC(=O)[C@]4(O)[C@@]5(C)[C@@H](OCc6cc(-c7ccc(OC)cc7)no6)CCC(C)(C)[C@@H]5[C@H](O)[C@H](OC(C)=O)[C@@]4(C)O3)C2)cc1` (stereo partly specified) are 4.3 µM and 3 µM.
The matching figures for `C=C[C@@]1(C)CC(=O)[C@]2(O)[C@@]3(C)[C@@H](OCc4cc(-c5ccc(Cl)cc5)no4)CCC(C)(C)[C@@H]3[C@H](OC(C)=O)[C@H](O)[C@@]2(C)O1`: more than 100 µM and 4 µM.
For `C=C[C@@]1(C)CC(=O)[C@]2(O)[C@@]3(C)[C@@H](OCc4cc(-c5ccc(C)cc5)no4)CCC(C)(C)[C@@H]3[C@H](OC(C)=O)[C@H](O)[C@@]2(C)O1`, the half-maximal inhibitory concentration (IC50) in the test on BT-474 was more than 100 µM; in the test on MCF7 [1] it was 32 µM.
The matching figures for `CC(=O)O[C@H]1[C@@H](O)[C@H]2C(C)(C)CC[C@H](OCc3cc(-c4ccc(OCc5ccccc5)cc4)no3)[C@]2(C)[C@@]2(O)C(=O)C[C@](C)(C3CC(c4ccc(OCc5ccccc5)cc4)=NO3)O[C@]12C` (stereo partly specified): 79.6 µM and 52.6 µM.
In the same order, the values of `COc1ccc(C2=NOC([C@@]3(C)CC(=O)[C@]4(O)[C@@]5(C)[C@@H](OCc6cc(-c7ccc(OC)c(OC)c7)no6)CCC(C)(C)[C@@H]5[C@H](O)[C@H](OC(C)=O)[C@@]4(C)O3)C2)cc1OC` (stereo partly specified) are more than 100 µM and 0.5 µM.
The matching figures for `C#CCO[C@H]1CCC(C)(C)[C@@H]2[C@H](OC(C)=O)[C@H](O)[C@@]3(C)O[C@@](C)(C=C)CC(=O)[C@]3(O)[C@@]12C`: more than 100 µM and 30 µM.
For the compound `C=C[C@@]1(C)CC(=O)[C@]2(O)[C@@]3(C)[C@@H](OCc4cc(-c5ccc(OC)c(OC)c5)no4)CCC(C)(C)[C@@H]3[C@H](OC(C)=O)[C@H](O)[C@@]2(C)O1`, the results for the IC50 with BT-474 and in the test on MCF7 [1] were 28.3 µM and 12 µM, respectively.
In the same order, the values of `CC(=O)O[C@H]1[C@@H](O)[C@H]2C(C)(C)CC[C@H](OCc3cc(-c4ccccc4)no3)[C@]2(C)[C@@]2(O)C(=O)C[C@](C)(C3CC(c4ccccc4)=NO3)O[C@]12C` (stereo partly specified) are more than 100 µM and 35.3 µM.
Turning to `C=C[C@@]1(C)CC(=O)[C@]2(O)[C@@]3(C)[C@@H](OCc4cc(-c5cc(OC)c(OC)c(OC)c5)no4)CCC(C)(C)[C@@H]3[C@H](O)[C@H](OC(C)=O)[C@@]2(C)O1`, the IC50 was more than 100 µM in the test on BT-474 and 55.3 µM with MCF7 [1].
The matching figures for `C=C[C@@]1(C)CC(=O)[C@]2(O)[C@@]3(C)[C@@H](OCc4cc(-c5ccc(C)cc5)no4)CCC(C)(C)[C@@H]3[C@H](O)[C@H](OC(C)=O)[C@@]2(C)O1`: 75 µM and 7 µM.
Regarding `C=C[C@@]1(C)CC(=O)[C@]2(O)[C@@]3(C)[C@@H](OCc4cc(-c5ccccc5)no4)CCC(C)(C)[C@@H]3[C@H](O)[C@H](OC(C)=O)[C@@]2(C)O1`, the 50% inhibitory concentration (IC50) was 5 µM with BT-474 and 0.5 µM in the test on MCF7 [1]. Besides, the result with MCF7 [2] was Active.
In the same order, the values of `CC[C@@]1(C)CC(=O)[C@]2(O)[C@@]3(C)[C@@H](OCc4cc(-c5ccc(OC)cc5)no4)CCC(C)(C)[C@@H]3[C@H](O)[C@H](OC(C)=O)[C@@]2(C)O1` are 2.1 µM, 0.5 µM and “Active”.
With `C=C[C@@]1(C)CC(=O)[C@]2(O)[C@@]3(C)[C@@H](OCc4cc(-c5cc(OC)c(OC)c(OC)c5)no4)CCC(C)(C)[C@@H]3[C@H](OC(C)=O)[C@H](O)[C@@]2(C)O1`, the IC50 in the test on BT-474 is more than 100 µM; in the test with MCF7 [1] it was 4.4 µM.
In the same order, the values of `C=C[C@@]1(C)CC(=O)[C@]2(O)[C@@]3(C)[C@@H](OCc4cc(-c5c(OC)cc(OC)cc5OC)no4)CCC(C)(C)[C@@H]3[C@H](O)[C@H](OC(C)=O)[C@@]2(C)O1` are more than 100 µM and 0.5 µM.
With `CC[C@@]1(C)CC(=O)[C@]2(O)[C@@]3(C)[C@@H](OCc4cc(-c5ccc(Cl)cc5)no4)CCC(C)(C)[C@@H]3[C@H](O)[C@H](OC(C)=O)[C@@]2(C)O1`, the concentration for half-maximal inhibition (IC50) in the test with BT-474 was 7 µM; in the test on MCF7 [1], 1.6 µM.
For `C=C[C@@]1(C)CC(=O)[C@]2(O)[C@@]3(C)[C@@H](OCc4cc(-c5ccc(Cl)cc5)no4)CCC(C)(C)[C@@H]3[C@H](O)[C@H](OC(C)=O)[C@@]2(C)O1`, the half-maximal inhibitory concentration (IC50) with BT-474 was more than 100 µM; in the test on MCF7 [1], 5.6 µM.
Turning to `C=C[C@@]1(C)CC(=O)[C@]2(O)[C@@]3(C)[C@@H](OCc4cc(-c5ccc(OC)cc5)no4)CCC(C)(C)[C@@H]3[C@H](O)[C@H](OC(C)=O)[C@@]2(C)O1`, the results for the IC50 in the test on BT-474 and in the test on MCF7 [1] were 4 µM and 0.5 µM, respectively. In addition, the result in the test on MCF7 [2] was Active.
With `CC[C@@]1(C)CC(=O)[C@]2(O)[C@@]3(C)[C@@H](OCc4cc(-c5cc(OC)c(OC)c(OC)c5)no4)CCC(C)(C)[C@@H]3[C@H](O)[C@H](OC(C)=O)[C@@]2(C)O1`, the IC50 in the test on BT-474 amounted to 29.3 µM; in the test on MCF7 [1], 0.5 µM.
The matching figures for `CC(=O)O[C@H]1[C@@H](O)[C@H]2C(C)(C)CC[C@H](OCc3cc(-c4ccc(C)cc4)no3)[C@]2(C)[C@@]2(O)C(=O)C[C@](C)(C3CC(c4ccc(C)cc4)=NO3)O[C@]12C` (stereo partly specified): more than 100 µM and 5.6 µM.
In the same order, the values of `CC[C@@]1(C)CC(=O)[C@]2(O)[C@@]3(C)[C@@H](OCc4cc(-c5ccccc5)no4)CCC(C)(C)[C@@H]3[C@H](O)[C@H](OC(C)=O)[C@@]2(C)O1` are 9.1 µM and 2.6 µM.
The matching figures for `C=C[C@@]1(C)CC(=O)[C@]2(O)[C@@]3(C)[C@@H](OCc4cc(-c5ccc(OC)cc5)no4)CCC(C)(C)[C@@H]3[C@H](OC(C)=O)[C@H](O)[C@@]2(C)O1`: more than 100 µM and 57.3 µM.
Regarding `CC(=O)O[C@H]1[C@H]2C(C)(C)CC[C@H](OCc3cc(-c4ccc(OCc5ccccc5)cc4)no3)[C@]2(C)[C@@]2(O)C(=O)C[C@](C)(C3CC(c4ccc(OCc5ccccc5)cc4)=NO3)O[C@]2(C)[C@H]1O` (stereo partly specified), the figures for the IC50 in the test on BT-474 and in the test on MCF7 [1] were 1.3 µM and 3.3 µM, respectively.

A word on the IC50: it is the concentration that gives 50% inhibition. Low readings indicate greater potency, high ones weaker potency.
